Ends that are not written are not given here. * marks the point of attachment. Octanoyl = CCCCCCCC(=O)*
Assays:
[1] = system: Aβ oligomers; assay: Aβ oligomers (ELISA, immunoblot) in microvessel-depleted cortex and hippocampus after ghrelin; type: in vivo, mouse
From the text: (§1) Triple transgenic mice, 3×Tg-AD, containing three mutations ([…], APP Swedish and MAPT P301L), are widely used as an animal model of FAD. Age and gender-matched B6129SF2/J strain were used as the wild type (WT) control. Mice were obtained from the Jackson Laboratory and bred in our research institute's animal facility. Mice were housed in plastic cages on a 12 hr/12 hr light/dark cycle with ad libitum access to water and standard rodent diet. Animal usage was approved by California Medical Innovations Institute (CalMI2) Institutional Animal Care and Use Committee (IACUC). The genotyping was conducted in CalMI2 animal facilities at the age of 21 days by tail DNA extraction according to our previous protocol and the online information supplied by the vendor. Ten mice per strain (3×Tg-AD, B6129SF2/J) at the ages of 6, 9, and 12 months were used in this study. […]
The method has been described previously. […] After centrifugation at 12,000 rpm for 20 min, protein content was determined by Bradford assay. […]
Human Aβ oligomers were analyzed in the microvessel-depleted cortex and hippocampal supernatant by enzyme-linked immunosorbent assay (ELISA; IBL International, Germany) according to manufacturer's instructions. […]

[2] = system: 5 capillary miRNAs (miR-126, miR-145, miR-195, miR-21, miR-29b); assay: qPCR of 5 capillary miRNAs after ghrelin administration; type: in vivo, mouse; conditions: 9 months 3×Tg mice; ghrelin 600 μg/kg per day, every 2 days for 2 weeks S.C. vs saline
From the text: as §1, with “vendor.” for “vendor. Ten mice per strain (3×Tg-AD, B6129SF2/J) at the ages of 6, 9, and 12 months were used in this study.”
Total RNA was purified with Trizol reagent (Invitrogen), according to the manufacturer's instructions. To quantify miR-126-3p (MIMAT0000138), miR-145-5p (MIMAT0000157), miR-195-5p (MIMAT0000225), miR-21-5p (MIMAT0000530) and miR-29b-3p (MIMAT0000127), reverse transcription and quantitative PCR (qPCR) were performed using the TaqMan@ microRNA assay kit (Applied Biosystems) as previously described. […] Relative gene expression levels between wild type and 3×Tg-AD mice were determined using the comparative Ct (2^−ΔΔCt) method after normalizing to U6. […]

[3] = system: miR-145; assay: qPCR of capillary miR-145 after ghrelin administration; type: in vivo, mouse; conditions: 3×Tg-AD mice aged 9 months; ghrelin s.c. vs saline; P<0.05
From the text: as §1, with “vendor.” for “vendor. Ten mice per strain (3×Tg-AD, B6129SF2/J) at the ages of 6, 9, and 12 months were used in this study.”
(§2) Total RNA was purified with Trizol reagent (Invitrogen), according to the manufacturer's instructions. To quantify miR-126-3p (MIMAT0000138), miR-145-5p (MIMAT0000157), miR-195-5p (MIMAT0000225), miR-21-5p (MIMAT0000530) and miR-29b-3p (MIMAT0000127), reverse transcription and quantitative PCR (qPCR) were performed using the TaqMan@ microRNA assay kit (Applied Biosystems) as previously described. […] Relative gene expression levels between wild type and 3×Tg-AD mice were determined using the comparative Ct (2^−ΔΔCt) method after normalizing to U6.

[4] = system: Aβ plaque; conditions: 5×FAD mice with ghrelin treatment; cited from earlier work
[5] = system: pericytes coverage of capillaries; assay: Pericyte coverage of isolated capillaries after ghrelin administration; type: in vivo, mouse; conditions: 3×Tg-AD mice aged 9 months; ghrelin s.c. per day every 2 days for 2 weeks vs vehicle (saline); P<0.001
From the text: as §1, with “vendor.” for “vendor. Ten mice per strain (3×Tg-AD, B6129SF2/J) at the ages of 6, 9, and 12 months were used in this study.”
(§3) The isolated microvessel fragments were smeared onto Superfrost Plus pre-cleaned glass microscope slides and fixed using ICC Fixation Buffer (BD Pharmingen) for 15 min at room temperature (RT). […] For coverage analysis, the percentage of PDGFRβ-positive pericyte area covering lectin-positive capillary area was quantified using Image J Area analysis as described previously. For the expression analysis of Aβ transporters, the area of LRP1, RAGE and Mdr1-occupied endothelium were measured as an area percentage normalized by the total area of lectin-positive capillaries using Image J Area measurement tool. […]

[6] = system: miR-126; assay: qPCR of capillary miR-126 after ghrelin administration; type: in vivo, mouse; conditions: 3×Tg-AD mice aged 9 months; ghrelin s.c. vs saline; P<0.05
From the text: as §1, with “vendor.” for “vendor. Ten mice per strain (3×Tg-AD, B6129SF2/J) at the ages of 6, 9, and 12 months were used in this study.”
as §2

[7] = system: RAGE; assay: Expression of Aβ transporters in isolated capillaries after ghrelin (immunofluorescence); type: in vivo, mouse; conditions: 3×Tg-AD mice aged 9 months; ghrelin vs saline-injected group
From the text: as §1, with “vendor.” for “vendor. Ten mice per strain (3×Tg-AD, B6129SF2/J) at the ages of 6, 9, and 12 months were used in this study.”
as §3

n-octanoylated ghrelin (GSS(Octanoyl)FLSPEHQRVQQRKESKKPPAKLQPR; UniProt Q9UBU3 24-51, looked up) [neuropeptide "hunger hormone" generated from ghrelinergic cells of the gastrointestinal tract; n-octanoylated ghrelin from AnaSpec]
level of Aβ oligomers ([1]; 3×Tg-AD mice aged 9 months, ghrelin vs vehicle, ELISA and immunoblot, vessels-depleted hippocampus and cortex, P<0.05): significantly lower level | Aβ levels (both APP and Aβ oligomers) ([1]; 9 months 3×Tg mice, ghrelin 600 μg/kg per day, every 2 days for 2 weeks S.C. vs saline, 6E10 and A11 antibodies): significantly lower | expression levels of all 5 capillary miRNAs in hippocampus and cerebral cortex [2]: significant increase | expression level of capillary miR-145 from hippocampus and cerebral cortex [3]: significant increase | Aβ plaque burden [4]: no significant diminishment | percentage of pericyte coverage [5]: increased significantly | expression level of capillary miR126 from hippocampus and cerebral cortex [6]: significant increase | decline of relative expression of RAGE in isolated capillaries [7]: ~10%

Reference: patent US20200071699A1, “TREATMENT OF ALZHEIMERS DISEASE WITH MICRO RNA AND GHRELIN” (priority 2018, published 2020)
